Measured values published in publication PMC2363072, “Oral topotecan: bioavailability and effect of food co-administration” (British Journal of Cancer, 1999).
Where two headings read alike, the source gives them in different places.

Columns and labels:
clinical [1] = format: in vivo, human (patients with solid tumours); conditions: for Urinary excretion: 24 h urine
Source text: (§1) Topotecan (Hycamtin) is one of the prototypes of a promising new class of cytotoxic drugs that act through inhibition of topoisomerase I. Topoisomerase I is a nuclear enzyme that relieves the torsional strain in DNA ahead of the moving replication fork (Hsiang et al, 1988, 1989). Inhibition of the enzyme results in lethal DNA damage during transcription and replication. The E-ring lactone in the basic structure of topotecan is considered to be essential for interaction with the topoisomerase I enzyme (Hertzberg et al, 1989; Pommier et al, 1991). […] Prolonged administra- tion increases the probability that tumour cells will be exposed to topotecan during DNA replication, i.e. when they are most suscep- tible. In-vivo in patients there is yet no convincing evidence of a clinically relevant schedule dependency. Intravenous (i.v.) topotecan administered as daily 30-min infu- sions for 5 days has recently received marketing approval for the treatment of patients with ovarian cancer after failure of initial or subsequent platinum-based chemotherapy. An oral gelatin capsule formulation has now been developed (Creemers et al, 1997; Gerrits et al 1998). A phase I study has determined the maximum tolerated dose (MTD) for oral topotecan to be 2.3 mg m-2 for the daily times five dosing schedule (Gerrits et al, 1998). […] In these studies, bioavailability was tested in fasted patients. […] Food can have marked effects on drug absorption by increasing, decreasing, or sometimes simply delaying it. Food can also influence drug metabolism, and certain food components, such as protein and fat, are particularly potent in this respect. For an oral formulation it is therefore essential to investigate the effect of food co-administration on the pharmacokinetics. The aims of the present study were (1) to evaluate the effect of fed and fasted conditions on the bioavailability and pharmaco- kinetics of oral topotecan, and (2) to determine the absolute bioavailability of the gelatin capsule formulation. Oral topotecan: bioavailability and effect of food co-administration VMM Herben1,2 , H Rosing1 , WW ten Bokkel Huinink2 , DM van Zomeren1 , D Batchelor2 , E Doyle3 , FD Beusenberg4 , JH Beijnen1,2 and JHM Schellens2 1 Slotervaart Hospital/The Netherlands Cancer Institute, Department of Pharmacy and Pharmacology, Amsterdam, The Netherlands; 2 Antoni van Leeuwenhoek Hospital/The Netherlands Cancer Institute, Department of Medical Oncology, Amsterdam, The Netherlands; 3 SmithKline Beecham Pharmaceuticals, Department of Drug Metabolism and Pharmacokinetics, Hertfordshire, UK; 4 SmithKline Beecham Farma, Rijswijk, The Netherlands Summary The aims of the study were twofold: (1) to evaluate the effect of food on the relative oral bioavailability of topotecan gelatin capsules in patients with solid tumours, and (2) to determine the absolute bioavailability of oral topotecan with reference to the intravenous (i.v.) formulation. […] On day 1 of the first treatment course patients were administered 2.3 mg m-2 day-1 of oral topotecan with or without a high-fat breakfast. They crossed over to receive the alternate regimen on day 2. In the second course (3 weeks later) fasted patients received topotecan orally (2.3 mg m-2 day-1 ) or i.v. ([…]). They crossed over to receive the alternate regimen on day 2. On days 3-5 of both treatment courses patients received oral topotecan. Plasma pharmacokinetics were performed on days 1 and 2 of the first and second course using a high-performance liquid chromatographic assay. Eighteen patients were enrolled in the study. The ratio of the area under the curve to infinity during fasted and high-fat treatment was 0.93 0.23 (90% confidence interval (CI) 0.83-1.03). Maximal plasma concentrations of topotecan were similar after ingestion of the capsules with (10.6 4.4 ng ml-1 ) or without food (9.2 4.1 ng ml-1 ) (P = 0.130). […]

topoisomerase I = test system: topoisomerase I; set-up: method as in Johnson and Wood, personal communication; conditions: ref Johnson and Wood, personal communication; cited from earlier work
[2] = set-up: method as in Gerrits et al, 1998; conditions: oral gelatin capsule, ref Gerrits et al, 1998, cited from earlier work
clinical [3] = assay: clinical; set-up: species or system human (patients with solid tumours); conditions: human, in vivo
Source text: as §1

[4] = set-up: method as in Davies et al, 1995; conditions: dogs, ref Davies et al, 1995; cited from earlier work
[5] = set-up: method as in Eckardt et al, 1995; Schellens et al, 1996; conditions: i.v. formulation administered orally; fasted patients; ref Eckardt et al, 1995; Schellens et al, 1996; cited from earlier work
[6] = metabolite as total of lactone and carboxylate, corrected for administered topotecan dose
[7] = total of the analyte, plasma, after i.v. topotecan 1.5 mg m-2
[8] = total, corrected for actual administered topotecan dose

In the case of `CC[C@@]1(O)C(=O)OCc2c1cc1n(c2=O)Cc2cc3c(CNC)c(O)ccc3nc2-1` [N-desmethyltopotecan], the “metabolic ratio (metabolite:topotecan AUC ratio)” value (clinical [1]; after i.v. administration) is reported as 4.5%, the “time at which maximal total metabolite plasma levels were reached, median” value (clinical [1]; after ingestion of topotecan capsules) is reported as 4.0 h and the “metabolic ratio (metabolite:topotecan AUC ratio)” value (clinical [1]; after oral administration) is reported as 6.9%. For the same compound, the “time at which maximal total metabolite plasma levels were reached, median” value (clinical [1]; after the start of the i.v. infusion) was 2.1 h, the lactone plasma concentrations (clinical [1]; lactone form of metabolite, lower limit of quantification 0.1 ng ml-1) was “below the detection limit in six patients” and the “oral:i.v. AUC0- (to infinity) ratio” value (clinical [1]; [6]) was 62%. The “oral:i.v. AUC0-t ratio” value (clinical [1]; [6]) was 71%, the Cmax (clinical [1]; plasma, after i.v. topotecan 1.5 mg m-2) was 0.44 ng/mL and the Cmax (clinical [1]; plasma, after oral topotecan 2.3 mg m-2) was 0.34 ng/mL. The t1/2 ratio oral/i.v. (clinical [1]; total) was 1.17, the AUC0-t (clinical [1]; total (lactone + carboxylate) of the analyte, plasma, after oral topotecan 2.3 mg m-2) was 2.7 ng·h/mL and the Urinary excretion (clinical [1]; total of the analyte, % of i.v. topotecan dose) was 0.9%. For the same compound, the Urinary excretion (clinical [1]; total of the analyte, % of oral topotecan dose (topotecan corrected for F)) was 1.1%, the “t1/2 (apparent terminal half-life)” value (clinical [1]; total of the analyte, after i.v. topotecan 1.5 mg m-2) was 6.21 h and the “t1/2 (apparent terminal half-life)” value (clinical [1]; total of the analyte, after oral topotecan 2.3 mg m-2) was 7.25 h. The “AUC0- (area under the curve to infinity)” value (clinical [1]; [7]) was 4.8 ng·h/mL, the AUC0-t (clinical [1]; [7]) was 2.4 ng·h/mL and the “AUC0- (area under the curve to infinity)” value (clinical [1]; total of the analyte, plasma, after oral topotecan 2.3 mg m-2) was 4.6 ng·h/mL. The “AUC0- (to infinity) ratio oral/i.v.” value (clinical [1]; [8]) was 0.62, the AUC0-t ratio oral/i.v. (clinical [1]; [8]) was 0.71 and the Cmax ratio oral/i.v. (clinical [1]; [8]) was 0.51. The “topoisomerase I-inhibiting activity relative to parent compound” value (topoisomerase I) was “slightly less topoisomerase I-inhibiting activity than the parent compound”.
For `CC[C@@]1(O)C(=O)OCc2c1cc1n(c2=O)Cc2cc3c(CN(C)C)c(O)ccc3nc2-1` [topotecan, Topotecan], the “maximum tolerated dose (MTD)” value ([2]; daily times five dosing schedule) is given as 2.3 mg m-2, the “Dose-limiting toxicity (DLT)” value ([2]; daily times five) is given as “NCI CTC grade 4 neutropenia” and the “plasma concentration at the pre-dose time point for day 2 (carry-over), mean” value (clinical [3]) is given as 0.43 ng/mL. For the same compound, the “AUC0- (to infinity) ratio fasted/fed” value (clinical [3]; po, 2.3 mg) was 0.88, the “time needed to reach maximal plasma levels (tmax), median” value (clinical [3]; po, 2.3 mg) was 2.0 h and the AUC0-t (clinical [3]; po, 2.3 mg, AUC0-t) was 19.6 ng·h/mL. For the same compound, the half-life (clinical [3]; po, 2.3 mg, t1/2 (apparent terminal half-life)) was 3.84 h, the Tmax (clinical [3]; po, 2.3 mg, time needed to reach maximal plasma levels (tmax), median) was 3.1 h and the half-life (clinical [3]; total, oral 2.3 mg m-2, fed, read-out: t1/2 (apparent terminal half-life) (converted)) was 3.49 h. The “absolute bioavailability (F) using AUC0-t” value (clinical [1]; human, in vivo) was 40%, the bioavailability (clinical [1]; human, in vivo, absolute bioavailability (F)) was 42 ± 13% and the bioavailability (clinical [1]; human, in vivo, bioavailability calculated using only the lactone data) was 38%. The “coefficient of variation of the AUC0- (interpatient variability)” value (clinical [1]; human, in vivo, iv) was 25%, the “lactone:total topotecan AUC0- ratio” value (clinical [1]; human, in vivo, iv) was 0.38 and the “AUC0- (area under the curve to infinity)” value (clinical [1]; human, in vivo, iv, 1.5 mg) was 38.6 ng·h/mL. The “t1/2 (apparent terminal half-life)” value (clinical [1]; human, in vivo, iv, 1.5 mg) was 2.64 h, the Cmax (clinical [1]; human, in vivo, iv, 1.5 mg, Cmax) was 33.9 ng/mL and the “coefficient of variation of the AUC0- (interpatient variability)” value (clinical [1]; human, in vivo, po) was 44%. For the same compound, the “lactone:total topotecan AUC0- ratio” value (clinical [1]; human, in vivo, po) was 0.35, the “AUC0- (area under the curve to infinity)” value (clinical [1]; human, in vivo, po, 2.3 mg) was 22.7 ng·h/mL and the AUC0-t (clinical [1]; human, in vivo, po, 2.3 mg) was 20.4 ng·h/mL. The Cmax (clinical [1]; human, in vivo, po, 2.3 mg, Cmax) was 6.3 ng/mL, the “part of an absorbed oral dose that enters the blood circulation as the open-ring form” value [4] was “approximately 2.5%” and the bioavailability [5] was 30-44%.
